# Laboratory results as given in ChEMBL document CHEMBL1147969, “Synthesis of some novel heterocyclic compounds derived from diflunisal hydrazide as potential anti-infective and anti-inflammatory agents” (2007).
# The source made the active and inactive calls. The calls are words filed in the database; no cut-off is given here.
# Tested on: Vaccinia virus
# Assay: Antiviral activity against Vaccinia virus-induced cytopathogenicity at 16 ug/mL
# Assay type: functional, organism-based
# Conditions: Orthopoxvirus vaccinia
smiles,measurement,value
Cc1ccc(-n2c(-c3cc(-c4ccc(F)cc4F)ccc3O)n[nH]c2=S)cc1,Activity,Active
